ChEMBL document CHEMBL3407491, “Synthesis, characterization and in vitro photodynamic antimicrobial activity of basic amino acid-porphyrin conjugates” (Eur J Med Chem, 2015)
Converted amounts (≈) assume the structure as drawn.

Assays:
Escherichia coli [1] = assay: Antibacterial activity against Escherichia coli ATCC 25922 incubated in dark for 30 mins followed by exposure to light fluences at 650 nm and 6 J/cm2 and then incubated overnight measured after 24 hrs; format: functional; conditions: ATCC 25922, light or radiation study
Pseudomonas aeruginosa [2] = assay: Antibacterial activity against Pseudomonas aeruginosa ATCC 27853 incubated in dark for 30 mins measured after 24 hrs; format: functional
Pseudomonas aeruginosa [3] = assay: Antibacterial activity against Pseudomonas aeruginosa ATCC 27853 incubated in dark for 30 mins followed by exposure to light fluences at 650 nm and 6 J/cm2 and then incubated overnight measured after 24 hrs; format: functional; conditions: ATCC 27853, light or radiation study
Staphylococcus aureus [4] = assay: Antibacterial activity against methicillin-resistant Staphylococcus aureus incubated in dark for 30 mins followed by exposure to light fluences at 650 nm and 6 J/cm2 and then incubated overnight measured after 24 hrs; format: functional; conditions: light or radiation study
Escherichia coli [5] = assay: Bactericidal activity against Escherichia coli ATCC 25922 incubated in dark for 30 mins followed by exposure to light fluences at 650 nm and 6 J/cm2 and then incubated overnight followed by further incubation on LB agar plates for another 24 hrs; format: functional; conditions: ATCC 25922, light or radiation study
Escherichia coli [6] = assay: Antibacterial activity against Escherichia coli ATCC 25922 incubated in dark for 30 mins measured after 24 hrs; format: functional
[7] = Photostability at 2 x 10^-5 mol/L exposed to 4.2 mW/cm2 light energy density assessed as change in absorption spectra after 30 mins post irradiation; format: physicochemical; conditions: 0.5 h, 20 µM
Escherichia coli [8] = assay: Antibacterial activity against Escherichia coli ATCC 25922 incubated in dark for 30 mins and grown for 24 hrs followed by further incubation on LB agar plates for another 24 hrs; format: functional
Staphylococcus aureus [9] = assay: Antibacterial activity against methicillin-resistant Staphylococcus aureus assessed as log reduction in bacterial count at 10 uM incubated in dark for 30 mins followed by exposure to light fluences at 650 nm and 6 J/cm2 and then incubated overnight measured after 24 hrs; format: functional
Escherichia coli [10] = assay: Antibacterial activity against Escherichia coli ATCC 25922 assessed as log reduction in bacterial count at 10 uM incubated in dark for 30 mins followed by exposure to light fluences at 650 nm and 6 J/cm2 and then incubated overnight measured after 24 hrs; format: functional
Staphylococcus aureus [11] = assay: Antibacterial activity against methicillin-resistant Staphylococcus aureus incubated in dark for 30 mins and grown for 24 hrs followed by further incubation on LB agar plates for another 24 hrs; format: functional
Staphylococcus aureus [12] = assay: Bactericidal activity against methicillin-resistant Staphylococcus aureus incubated in dark for 30 mins followed by exposure to light fluences at 650 nm and 6 J/cm2 and then incubated overnight followed by further incubation on LB agar plates for another 24 hrs; format: functional; conditions: light or radiation study
Staphylococcus aureus [13] = assay: Antibacterial activity against methicillin-resistant Staphylococcus aureus incubated in dark for 30 mins measured after 24 hrs; format: functional
Pseudomonas aeruginosa [14] = assay: Antibacterial activity against Pseudomonas aeruginosa ATCC 27853 assessed as log reduction in bacterial count at 10 uM incubated in dark for 30 mins followed by exposure to light fluences at 650 nm and 6 J/cm2 and then incubated overnight measured after 24 hrs; format: functional
[15] = Singlet oxygen generation of the compound exposed to 4.2 mW/cm2 light energy density assessed as singlet oxygen quantum yield measured at 410 nm in 10 seconds intervals of irradiation at 0.2 uM by DPBF scavenger based assay
[16] = Octanol water partition coefficient, log P of the compound by reverse-phase thin-layer chromatography; format: physicochemical
Pseudomonas aeruginosa [17] = assay: Bactericidal activity against Pseudomonas aeruginosa ATCC 27853 incubated in dark for 30 mins followed by exposure to light fluences at 650 nm and 6 J/cm2 and then incubated overnight followed by further incubation on LB agar plates for another 24 hrs; format: functional; conditions: ATCC 27853, light or radiation study
Pseudomonas aeruginosa [18] = assay: Antibacterial activity against Pseudomonas aeruginosa ATCC 27853 incubated in dark for 30 mins and grown for 24 hrs followed by further incubation on LB agar plates for another 24 hrs; format: functional

With `NCCCC[C@H](N)C(=O)Nc1ccc(-c2c3nc(c(-c4ccccc4)c4ccc([nH]4)c(-c4ccc(NC(=O)[C@@H](N)CCCCN)cc4)c4nc(c(-c5ccccc5)c5ccc2[nH]5)C=C4)C=C3)cc1` as the molecule, how does the MIC (Escherichia coli [1]) read?
Its MIC is 15.6 µM (≈ 14.1 µg/mL).

What about the MIC (Pseudomonas aeruginosa [2]) of the same molecule?
The MIC was 62.5 µM (≈ 56.3 µg/mL).

What about the MIC (Pseudomonas aeruginosa [3]) of the same molecule?
Its MIC is 31.2 µM (≈ 28.2 µg/mL).

And the MIC (Staphylococcus aureus [4])?
The MIC was 15.6 µM (≈ 14.1 µg/mL).

And the MBC (Escherichia coli [5])?
Its MBC is 31.2 µM (≈ 28.2 µg/mL).

What about the MIC (Escherichia coli [6]) of the same molecule?
The MIC was 62.5 µM (≈ 56.3 µg/mL).

What about the Activity [7] of the same molecule?
Its Activity is under 20%.

What about the MBC (Escherichia coli [8]) of the same molecule?
The MBC was 125 µM (≈ 113 µg/mL).

And the “Log reduction in bacterial count” value (Staphylococcus aureus [9])?
Its value is 3.

And the “log reduction in bacterial count” value (Escherichia coli [10])?
Its value is 2.

And the MBC (Staphylococcus aureus [11])?
Its MBC is 250 µM (≈ 225 µg/mL).

And the MBC (Staphylococcus aureus [12])?
The MBC was 31.2 µM (≈ 28.2 µg/mL).

And the MIC (Staphylococcus aureus [13])?
Its MIC is 125 µM (≈ 113 µg/mL).

What about the “log reduction in bacterial count” value (Pseudomonas aeruginosa [14]) of the same molecule?
The value was over 5.

What about the Activity [15] of the same molecule?
Its Activity is 0.57.

What about the logP [16] of the same molecule?
The logP was 1.37.

What about the MBC (Pseudomonas aeruginosa [17]) of the same molecule?
Its MBC is 62.5 µM (≈ 56.3 µg/mL).

And the MBC (Pseudomonas aeruginosa [18])?
The MBC was 125 µM (≈ 113 µg/mL).

For `NCCCC[C@H](N)C(=O)Nc1ccc(-c2c3nc(c(-c4ccc(NC(=O)[C@@H](N)CCCCN)cc4)c4ccc([nH]4)c(-c4ccccc4)c4nc(c(-c5ccccc5)c5ccc2[nH]5)C=C4)C=C3)cc1`, which MIC (Escherichia coli [1]) is on record?
The MIC was 31.2 µM (≈ 28.2 µg/mL).

What about the MIC (Pseudomonas aeruginosa [2]) of the same molecule?
The MIC was 62.5 µM (≈ 56.3 µg/mL).

What about the MIC (Pseudomonas aeruginosa [3]) of the same molecule?
Its MIC is 31.2 µM (≈ 28.2 µg/mL).

What about the MIC (Staphylococcus aureus [4]) of the same molecule?
The MIC was 31.2 µM (≈ 28.2 µg/mL).

And the MBC (Escherichia coli [5])?
Its MBC is 62.5 µM (≈ 56.3 µg/mL).

What about the MIC (Escherichia coli [6]) of the same molecule?
The MIC was 125 µM (≈ 113 µg/mL).

And the Activity [7]?
The Activity was under 20%.

What about the MBC (Escherichia coli [8]) of the same molecule?
Its MBC is 250 µM (≈ 225 µg/mL).

What about the “Log reduction in bacterial count” value (Staphylococcus aureus [9]) of the same molecule?
Its value is 3.

What about the “log reduction in bacterial count” value (Escherichia coli [10]) of the same molecule?
The value was 2.

What about the MBC (Staphylococcus aureus [11]) of the same molecule?
The MBC was 125 µM (≈ 113 µg/mL).

What about the MBC (Staphylococcus aureus [12]) of the same molecule?
The MBC was 62.5 µM (≈ 56.3 µg/mL).

And the MIC (Staphylococcus aureus [13])?
Its MIC is 62.5 µM (≈ 56.3 µg/mL).

What about the “log reduction in bacterial count” value (Pseudomonas aeruginosa [14]) of the same molecule?
The value was over 5.

What about the Activity [15] of the same molecule?
Its Activity is 0.65.

What about the logP [16] of the same molecule?
The logP was 1.39.

What about the MBC (Pseudomonas aeruginosa [17]) of the same molecule?
Its MBC is 62.5 µM (≈ 56.3 µg/mL).

What about the MBC (Pseudomonas aeruginosa [18]) of the same molecule?
The MBC was 125 µM (≈ 113 µg/mL).
